Reference: patent US7750021B2, “Immunosuppressant compounds and compositions” (IRM LLC, priority 2003, dated 2010)

Experiments:
[1] = molecular target: T1, human EDG-1 (Homo sapiens, UniProt P21453); assay: EDG-1 (S1P1) GTP [γ-35S] binding assay; type: biochemical; details: GTP [γ-35S] binding to membranes from CHO cells expressing human EDG-1
T1 construct: c-myc (N); expressed in transfected cells
Procedure: (§1) A. In Vitro: GPCR Activation Assay Measuring GTP [γ-^35S] Binding to Membranes Prepared from CHO Cells Expressing Human EDG Receptors
EDG-1 (S1P1) GTP [γ-^35S] binding assay: Homogenized membranes are prepared from CHO cell clones stably expressing a human EDG-1 N-terminal c-myc tag. Cells are grown in suspension in two 850 cm^2 roller bottles for three or fours days before harvesting. The cells are centrifuged down, washed once with cold PBS, and resuspended in ≦20 ml of Buffer A (20 mM HEPES, pH 7.4, 10 mM EDTA, EDTA-free complete protease inhibitor cocktail [1 tablet/25 ml]). The cell suspension is homogenized on ice, using a Polytron homogenizer at 30000 rpm at three intervals of 15 seconds each. The homogenate is first centrifuged at 2000 rpm on a tabletop low speed centrifuge for 10 minutes. The supernatant, after passing through a cell strainer, is then re-centrifuged at 50,000×g for 25 minutes at 4° C. The pellet is resuspended into buffer B (15% glycerol, 20 mM HEPES, pH 7.4, 0.1 mM EDTA, EDTA-free complete protease inhibitor cocktail [1 tablet/10 ml]). Protein concentration of the prep is determined using the BCA Protein Assay kit (Pierce) using BSA as standard. The membranes are aliquoted and kept frozen at −80° C.
Solutions of test compounds ranging from 10 mM to 0.01 nM are prepared in DMSO. S1P is diluted in 4% BSA solution as positive controls. […]

[2] = test system: EDG-3, EDG-5, EDG-6 and EDG-8; assay: EDG-3, -5, -6 and -8 GTP [γ-35S] binding assays (selectivity versus EDG-1); type: biochemical, human
Procedure: as §1
Solutions of test compounds ranging from 10 mM to 0.01 nM are prepared in DMSO. S1P is diluted in 4% BSA solution as positive controls. The desired amount of membrane prep is diluted with ice-cold assay buffer (20 mM HEPES, pH 7.4, 100 mM NaCl, 10 mM MgCl2, 0.1% Fatty acid-free BSA, 5 μM GDP) and vortexed well. 2 μl or less of compound is distributed into each well of a round-bottom 96-well polystyrene assay plate, followed by addition of 100 μl of diluted membranes (3-10 μg/well) and kept on ice until the addition of hot GTPγS. [^35S]-GTPγS is diluted 1:1000 (v/v) with cold assay buffer and 100 μl is added into each well. The reaction is carried out at room temperature for 90 minutes before the membranes are harvested onto Perkin-Elmer Unifilter® GF/B-96 filter plate using a Packard Filtermate Harvester. After several washes with wash buffer (20 mM HEPES, pH 7.4, 100 mM NaCl, 10 mM MgCl2), and a rinse with 95% ethanol, the filter is dried in a 37° C. oven for 30 minutes. MicroScint-20 is added and the plate sealed for scintillation counting on TopCount. EC50 values are obtained by fitting the GTP [γ-^35S] binding curves (raw data) with the dose response curve-fitting tool of GraphPad Prism. […]

[3] = test system: blood lymphocytes; assay: Measurement of circulating lymphocytes (blood lymphocyte depletion); type: in vivo, Mice (C57b1/6 male); details: Mus musculus, po, mice, orally by gavage, blood collected 6 and 24 hours after administration, read-out: ED50, effective dose required displaying 50% of blood lymphocyte depletion
Procedure: Measurement of circulating lymphocytes: Compounds are dissolved in DMSO and diluted to obtain a final concentration of 4% DMSO (v/v, final concentration) and then further diluted in a constant volume of Tween80 25%/H2O, v/v. Tween80 25%/H2O (200 μl), 4% DMSO, and FTY720 (10 μg) are included as negative and positive controls, respectively. Mice (C57b1/6 male, 6-10 week-old) are administered 250-300 μL of compound solution orally by gavages under short isoflurane anesthesia.
Blood is collected from the retro-orbital sinus 6 and 24 hours after drug administration under short isoflurane anesthesia. Whole blood samples are subjected to hematology analysis. Peripheral lymphocyte counts are determined using an automated analyzer. Subpopulations of peripheral blood lymphocytes are stained by fluorochrome-conjugated specific antibodies and analyzed using a fluorescent activating cell sorter (Facscalibur). Two mice are used to assess the lymphocyte depletion activity of each compound screened. The result is an ED50, which is defined as the effective dose required displaying 50% of blood lymphocyte depletion.

T1 sequence (P21453 whole entry): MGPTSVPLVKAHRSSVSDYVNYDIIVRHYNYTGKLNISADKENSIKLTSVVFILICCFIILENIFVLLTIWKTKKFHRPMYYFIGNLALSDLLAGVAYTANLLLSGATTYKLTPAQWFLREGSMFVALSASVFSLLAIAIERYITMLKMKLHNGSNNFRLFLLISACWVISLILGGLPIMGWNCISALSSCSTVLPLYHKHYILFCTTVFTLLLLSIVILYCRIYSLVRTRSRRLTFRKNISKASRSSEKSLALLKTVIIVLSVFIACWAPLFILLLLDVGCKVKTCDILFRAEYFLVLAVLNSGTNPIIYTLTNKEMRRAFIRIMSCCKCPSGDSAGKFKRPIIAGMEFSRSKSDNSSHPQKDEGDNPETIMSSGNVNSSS

O=C(O)CCNCc1ccc2sc(-c3ccc(-c4ccccc4)c(C(F)(F)F)c3)cc2c1 [Example 1, 3-{[2-(2-Trifluoromethyl-biphenyl-4-yl)-benzo[b]thiophen-5-ylmethyl]-amino}-propionic acid]
EC50 [1]: 0.6 nM
selective for EDG-1 compared to one or more of the other receptors including EDG-3, EDG-5, EDG-6 and EDG-8 [2]: at least 1000 fold
ED50 [3]: 0.2 mg/kg
